Test results reported in ChEMBL document CHEMBL1201862, “PubChem BioAssay data set” (2004).
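Cells were grown in 96-well plates and exposed to each compound for 48 hours at five concentrations; endpoints were interpolated linearly between bracketing concentrations, or set to the highest concentration if not reached. GI50 is the concentration that inhibits growth by half.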 Activity calls are given as the source filed them. Cut-off read from the data, not from the text of the source: active = GI50 up to about 1.1 µM and inactive = higher.

Assays:
Assay in all cases: inhibition of tumour cell growth, NCI panel, 48 h
786-0 = tested on: 786-0
A549 = tested on: A549
ACHN = tested on: ACHN
BT-549 = tested on: BT-549
CAKI-1 = tested on: CAKI-1
CCRF-CEM = tested on: CCRF-CEM
COLO 205 = tested on: COLO 205
DU-145 = tested on: DU-145
EKVX = tested on: EKVX
HCC 2998 = tested on: HCC 2998
HCT-116 = tested on: HCT-116
HCT-15 = tested on: HCT-15
HL-60 = tested on: HL-60
HOP-62 = tested on: HOP-62
HOP-92 = tested on: HOP-92
HT-29 = tested on: HT-29
Hs-578T = tested on: Hs-578T
IGROV-1 = tested on: IGROV-1
K562 = tested on: K562
KM12 = tested on: KM12
LOX IMVI = tested on: LOX IMVI
M14 = tested on: M14
MCF7 = tested on: MCF7
MDA-MB-231 = tested on: MDA-MB-231
MDA-MB-435 = tested on: MDA-MB-435
MDA-N = tested on: MDA-N
MOLT-4 = tested on: MOLT-4
Malme-3M = tested on: Malme-3M
NCI-H226 = tested on: NCI-H226
NCI-H23 = tested on: NCI-H23
NCI-H460 = tested on: NCI-H460
NCI-H522 = tested on: NCI-H522
NCI/ADR-RES = tested on: NCI/ADR-RES
OVCAR-3 = tested on: OVCAR-3
OVCAR-4 = tested on: OVCAR-4
OVCAR-5 = tested on: OVCAR-5
OVCAR-8 = tested on: OVCAR-8
PC-3 = tested on: PC-3
RPMI-8226 = tested on: RPMI-8226
RXF 393 = tested on: RXF 393
SF-268 = tested on: SF-268
SF-295 = tested on: SF-295
SF-539 = tested on: SF-539
SK-MEL-28 = tested on: SK-MEL-28
SK-MEL-5 = tested on: SK-MEL-5
SK-OV-3 = tested on: SK-OV-3
SN12C = tested on: SN12C
SNB-19 = tested on: SNB-19
SNB-75 = tested on: SNB-75
SR = tested on: SR
SW-620 = tested on: SW-620
T47D = tested on: T47D
TK-10 = tested on: TK-10
U-251 = tested on: U-251
UACC-257 = tested on: UACC-257
UACC-62 = tested on: UACC-62
UO-31 = tested on: UO-31
SK-MEL-2 = tested on: SK-MEL-2

Compound: Cc1cc(C)n(-c2nc(C)c(CCO)c(=O)[nH]2)n1
- GI50 (786-0): > 100 µM (inactive)
- GI50 (A549): > 100 µM (inactive)
- GI50 (ACHN): > 100 µM (inactive)
- GI50 (BT-549): > 100 µM (inactive)
- GI50 (CAKI-1): > 10 µM (inactive)
- GI50 (CCRF-CEM): > 100 µM (inactive)
- GI50 (COLO 205): > 100 µM (inactive)
- GI50 (DU-145): > 100 µM (inactive)
- GI50 (EKVX): > 100 µM (inactive)
- GI50 (HCC 2998): > 100 µM (inactive)
- GI50 (HCT-116): > 100 µM (inactive)
- GI50 (HCT-15): > 100 µM
- GI50 (HL-60): > 100 µM (inactive)
- GI50 (HOP-62): > 100 µM (inactive)
- GI50 (HOP-92): > 100 µM (inactive)
- GI50 (HT-29): > 100 µM (inactive)
- GI50 (Hs-578T): > 100 µM (inactive)
- GI50 (IGROV-1): > 100 µM (inactive)
- GI50 (K562): > 100 µM (inactive)
- GI50 (KM12): > 100 µM (inactive)
- GI50 (LOX IMVI): > 100 µM (inactive)
- GI50 (M14): > 100 µM (inactive)
- GI50 (MCF7): > 100 µM (inactive)
- GI50 (MDA-MB-231): > 100 µM (inactive)
- GI50 (MDA-MB-435): > 100 µM (inactive)
- GI50 (MDA-N): > 100 µM (inactive)
- GI50 (MOLT-4): > 100 µM (inactive)
- GI50 (Malme-3M): > 100 µM (inactive)
- GI50 (NCI-H226): > 100 µM (inactive)
- GI50 (NCI-H23): > 100 µM (inactive)
- GI50 (NCI-H460): > 100 µM (inactive)
- GI50 (NCI-H522): > 100 µM (inactive)
- GI50 (NCI/ADR-RES): 52 µM (inactive)
- GI50 (OVCAR-3): > 100 µM (inactive)
- GI50 (OVCAR-4): > 100 µM (inactive)
- GI50 (OVCAR-5): > 100 µM (inactive)
- GI50 (OVCAR-8): > 100 µM (inactive)
- GI50 (PC-3): > 100 µM (inactive)
- GI50 (RPMI-8226): > 100 µM (inactive)
- GI50 (RXF 393): > 100 µM (inactive)
- GI50 (SF-268): > 100 µM (inactive)
- GI50 (SF-295): > 100 µM (inactive)
- GI50 (SF-539): > 100 µM (inactive)
- GI50 (SK-MEL-28): > 100 µM (inactive)
- GI50 (SK-MEL-5): > 100 µM (inactive)
- GI50 (SK-OV-3): > 100 µM (inactive)
- GI50 (SN12C): > 100 µM (inactive)
- GI50 (SNB-19): > 100 µM (inactive)
- GI50 (SNB-75): 97.5 µM (inactive)
- GI50 (SR): > 100 µM (inactive)
- GI50 (SW-620): > 100 µM (inactive)
- GI50 (T47D): > 100 µM (inactive)
- GI50 (TK-10): > 100 µM (inactive)
- GI50 (U-251): > 100 µM (inactive)
- GI50 (UACC-257): > 100 µM (inactive)
- GI50 (UACC-62): > 100 µM (inactive)
- GI50 (UO-31): > 100 µM (inactive)

Compound: COc1ccc(-c2cc(=O)c3c(O)cc(C)cc3o2)cc1OC
- GI50 (786-0): > 100 µM (inactive)
- GI50 (A549): > 100 µM (inactive)
- GI50 (ACHN): > 100 µM (inactive)
- GI50 (BT-549): > 100 µM (inactive)
- GI50 (CCRF-CEM): > 100 µM (inactive)
- GI50 (COLO 205): > 100 µM (inactive)
- GI50 (DU-145): > 100 µM (inactive)
- GI50 (EKVX): > 100 µM (inactive)
- GI50 (HCC 2998): 79.6 µM (inactive)
- GI50 (HCT-116): > 100 µM (inactive)
- GI50 (HCT-15): > 100 µM
- GI50 (HL-60): > 100 µM (inactive)
- GI50 (HOP-62): > 100 µM (inactive)
- GI50 (HOP-92): 22.8 µM (inactive)
- GI50 (HT-29): > 100 µM (inactive)
- GI50 (Hs-578T): > 100 µM (inactive)
- GI50 (IGROV-1): > 100 µM (inactive)
- GI50 (K562): > 100 µM (inactive)
- GI50 (KM12): > 100 µM (inactive)
- GI50 (LOX IMVI): > 100 µM (inactive)
- GI50 (M14): > 100 µM (inactive)
- GI50 (MCF7): > 100 µM (inactive)
- GI50 (MDA-MB-231): > 100 µM (inactive)
- GI50 (MDA-MB-435): > 100 µM (inactive)
- GI50 (MDA-N): > 100 µM (inactive)
- GI50 (MOLT-4): > 100 µM (inactive)
- GI50 (Malme-3M): > 100 µM (inactive)
- GI50 (NCI-H226): > 100 µM (inactive)
- GI50 (NCI-H23): > 100 µM (inactive)
- GI50 (NCI-H460): > 100 µM (inactive)
- GI50 (NCI-H522): > 100 µM (inactive)
- GI50 (NCI/ADR-RES): > 100 µM (inactive)
- GI50 (OVCAR-3): > 100 µM (inactive)
- GI50 (OVCAR-4): > 100 µM (inactive)
- GI50 (OVCAR-5): > 100 µM (inactive)
- GI50 (PC-3): > 100 µM (inactive)
- GI50 (RPMI-8226): > 100 µM (inactive)
- GI50 (RXF 393): > 100 µM (inactive)
- GI50 (SF-268): > 100 µM (inactive)
- GI50 (SF-295): > 100 µM (inactive)
- GI50 (SF-539): > 100 µM (inactive)
- GI50 (SK-MEL-28): > 100 µM (inactive)
- GI50 (SK-MEL-2): > 100 µM (inactive)
- GI50 (SK-MEL-5): > 100 µM (inactive)
- GI50 (SK-OV-3): > 100 µM (inactive)
- GI50 (SN12C): > 100 µM (inactive)
- GI50 (SNB-19): > 100 µM (inactive)
- GI50 (SNB-75): 67.1 µM (inactive)
- GI50 (SR): > 100 µM (inactive)
- GI50 (SW-620): > 100 µM (inactive)
- GI50 (T47D): > 100 µM (inactive)
- GI50 (TK-10): > 100 µM (inactive)
- GI50 (U-251): > 100 µM (inactive)
- GI50 (UACC-257): > 100 µM (inactive)
- GI50 (UACC-62): > 100 µM (inactive)
- GI50 (UO-31): > 100 µM (inactive)
